Assay results reported in publication PMC6314390 (The Journal of General Physiology, 2019).

Legend:
[1] = molecular target: T1, cardiac troponin C (cTnC) (Homo sapiens, UniProt P63316, C35S/C84S); assay: 2D [1H, […]]-HSQC NMR titration; assay type: binding
[2] = molecular target: T1, cardiac troponin C (cTnC); assay: 2D [1H, […]]-HSQC NMR titration; assay type: binding; remark: listed apart in the source

SMILES	Kd [1] [µM]	2D [1H,15N]-HSQC NMR titration [2]
Clc1cccc(Nc2ccccc2)c1 [3-Cl-DPA, 3-Chlorodiphenylamine]	6 ± 1	–
CC(C)COCC(CN(Cc1ccccc1)c1ccccc1)N1CCCC1 (centres unmarked) [bepridil]	–	As bepridil is titrated into cTnC, NMR signals corresponding to the cNTnC domain move as the conformational equilibrium shifts
